Test results published in publication PMC6364417, “Kinase inhibitor library screening identifies synergistic drug combinations effective in sensitive and resistant melanoma cells” (Journal of Experimental & Clinical Cancer Research : CR, 2019).

What was measured:
Assay in all cases: Kinase inhibitor library screening, PrestoBlue cell viability, 1 or 10 μM, 72 h
[1] = test system: IGR37-XP cells (Vemurafenib-resistant); details: IGR37 XP, 72 h; for cell viability, IGR37 XP, 1μΜ: in %
[2] = test system: 501Mel-GP cells (Dabrafenib-resistant); details: 501Mel GP, 72 h; for cell viability, 501Mel GP, 1μΜ / cell viability, 501Mel GP, 10μΜ: in %
[3] = test system: A375-GP cells (Dabrafenib-resistant); details: A375 GP, 72 h; for cell viability, A375 GP, 1μΜ / cell viability, A375 GP, 10μΜ: in %
IGR37 cells (parental) = details: IGR37 Parental, 72 h; for cell viability, IGR37 Parental, 1μΜ / cell viability, IGR37 Parental, 10μΜ: in %
A375 cells (parental) = details: A375 Parental, 72 h; for cell viability, A375 Parental, 1μΜ / cell viability, A375 Parental, 10μΜ: in %
[4] = test system: A375-XP cells (Vemurafenib-resistant); details: A375 XP, 72 h; for cell viability, A375 XP, 1μΜ / cell viability, A375 XP, 10μΜ: in %
[5] = test system: 501Mel-XP cells (Vemurafenib-resistant); details: 501Mel XP, 72 h; for cell viability, 501Mel XP, 1μΜ / cell viability, 501Mel XP, 10μΜ: in %
501Mel cells (parental) = details: 501Mel Parental, 72 h; for cell viability, 501Mel Parental, 1μΜ / cell viability, 501Mel Parental, 10μΜ: in %
In short: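 Two concentrations of every kinase inhibitor were tested on each melanoma line and its resistant counterparts, and cell survival was quantified by PrestoBlue against untreated wells.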

[6] = test system: IGR37-GP cells (Dabrafenib-resistant); details: IGR37 GP, 72 h; for cell viability, IGR37 GP, 1μΜ: in %

Compound	cell viability (kinase inhibitor library screening) ([1]; 1μΜ) [%]	cell viability (kinase inhibitor library screening) ([1]; 10μΜ) [%]	cell viability (kinase inhibitor library screening) ([2]; 1μΜ) [%]	cell viability (kinase inhibitor library screening) ([2]; 10μΜ) [%]	cell viability (kinase inhibitor library screening) ([3]; 1μΜ) [%]	cell viability (kinase inhibitor library screening) ([3]; 10μΜ) [%]	cell viability (kinase inhibitor library screening) (IGR37 cells (parental); 1μΜ) [%]	cell viability (kinase inhibitor library screening) (IGR37 cells (parental); 10μΜ) [%]	cell viability (kinase inhibitor library screening) (A375 cells (parental); 10μΜ) [%]	cell viability (kinase inhibitor library screening) (A375 cells (parental); 1μΜ) [%]	cell viability (kinase inhibitor library screening) ([4]; 1μΜ) [%]	cell viability (kinase inhibitor library screening) ([4]; 10μΜ) [%]	cell viability (kinase inhibitor library screening) ([5]; 1μΜ) [%]	cell viability (kinase inhibitor library screening) ([5]; 10μΜ) [%]	cell viability (kinase inhibitor library screening) (501Mel cells (parental); 1μΜ) [%]	cell viability (kinase inhibitor library screening) (501Mel cells (parental); 10μΜ) [%]	cell viability (kinase inhibitor library screening) ([6]; 1μΜ) [%]	cell viability (kinase inhibitor library screening) ([6]; 10μΜ) [%]	cell viability, IGR37 XP, 10μΜ ([1]; 10μΜ) [%]	cell viability, IGR37 XP, 1μΜ ([1]; 1μΜ)	further results
Cn1cc(-c2ccc3ncc(Cc4ccc5ncccc5c4)n3n2)cn1 [NVP-BVU972]	110.4	86.2	89.9	69.4	106.0	100.5	104.5	96.9	100.0	108.4	109.6	105.5	74.0	62.7	107.5	89.2	108.8	87.7			
CNC(=O)c1ccccc1Nc1nc(Nc2ccc(N3CCOCC3)cc2OC)ncc1Cl [NVP-TAE226]																			1.5	34.8	cell viability, 501Mel GP, 1μΜ ([2]; 1μΜ): 72.0; cell viability, 501Mel GP, 10μΜ ([2]; 10μΜ): 34.3; cell viability, A375 GP, 1μΜ ([3]; 1μΜ): 41.6; cell viability, A375 GP, 10μΜ ([3]; 10μΜ): 16.3; cell viability, IGR37 Parental, 1μΜ (IGR37 cells (parental); 1μΜ): 82.8; cell viability, IGR37 Parental, 10μΜ (IGR37 cells (parental); 10μΜ): 36.2; cell viability, A375 Parental, 1μΜ (A375 cells (parental); 1μΜ): 51.1; cell viability, A375 Parental, 10μΜ (A375 cells (parental); 10μΜ): 12.7; cell viability, A375 XP, 1μΜ ([4]; 1μΜ): 52.4; cell viability, A375 XP, 10μΜ ([4]; 10μΜ): 21.6; cell viability, 501Mel XP, 1μΜ ([5]; 1μΜ): 67.5; cell viability, 501Mel XP, 10μΜ ([5]; 10μΜ): 20.7; cell viability, 501Mel Parental, 1μΜ (501Mel cells (parental); 1μΜ): 69.2; cell viability, 501Mel Parental, 10μΜ (501Mel cells (parental); 10μΜ): 38.3; cell viability, IGR37 GP, 10μΜ ([6]; 10μΜ): 3.7%; cell viability, IGR37 GP, 1μΜ ([6]; 1μΜ): 59.0
CCOc1cc2ncc(C#N)c(Nc3ccc(OCc4ccccn4)c(Cl)c3)c2cc1NC(=O)/C=C/CN(C)C [Neratinib (HKI-272)]																			9.6	75.0	cell viability, 501Mel GP, 1μΜ ([2]; 1μΜ): 103.4; cell viability, 501Mel GP, 10μΜ ([2]; 10μΜ): 64.1; cell viability, A375 GP, 1μΜ ([3]; 1μΜ): 93.4; cell viability, A375 GP, 10μΜ ([3]; 10μΜ): 4.2; cell viability, IGR37 Parental, 1μΜ (IGR37 cells (parental); 1μΜ): 96.7; cell viability, IGR37 Parental, 10μΜ (IGR37 cells (parental); 10μΜ): 66.7; cell viability, A375 Parental, 1μΜ (A375 cells (parental); 1μΜ): 97.5; cell viability, A375 Parental, 10μΜ (A375 cells (parental); 10μΜ): 29.0; cell viability, A375 XP, 1μΜ ([4]; 1μΜ): 89.5; cell viability, A375 XP, 10μΜ ([4]; 10μΜ): 10.7; cell viability, 501Mel XP, 1μΜ ([5]; 1μΜ): 85.2; cell viability, 501Mel XP, 10μΜ ([5]; 10μΜ): 0.0171; cell viability, 501Mel Parental, 1μΜ (501Mel cells (parental); 1μΜ): 96.7; cell viability, 501Mel Parental, 10μΜ (501Mel cells (parental); 10μΜ): 54.8; cell viability, IGR37 GP, 10μΜ ([6]; 10μΜ): 21.6%; cell viability, IGR37 GP, 1μΜ ([6]; 1μΜ): 81.2
Cc1cn(-c2cc(NC(=O)c3ccc(C)c(Nc4nccc(-c5cccnc5)n4)c3)cc(C(F)(F)F)c2)cn1 [Nilotinib (AMN-107)]	100.2	1.4	99.9	74.5	96.3	48.3	95.3	73.7	66.2	102.9	87.0	57.9	84.0	54.3	89.8	71.1	98.8	35.4			
